US20160158377A1, “BCL-XL Inhibitory Compounds and Antibody Drug Conjugates Including the Same” (AbbVie Inc., priority 2014, published 2016)
Like-named read-outs stand apart in the source and are kept apart here.

Legend:
[1] = test system: Molt-4 human acute lymphoblastic leukemia cells; assay: Molt-4 cell viability assay; type: cell-based; conditions: 10% human serum, 48 hours, CellTiter-Glo, read-out: Molt-4 Viability EC50 (nM, 10% HS)
Experimental: In one exemplary set of conditions, Molt-4 (ATCC, Manassas, Va.) human acute lymphoblastic leukemia cells were plated 12,500 cells per well in 384-well tissue culture plates (Corning, Corning, N.Y.) in a total volume of 25 μL tissue culture medium supplemented with 10% human serum (Sigma-Aldrich, St. Louis, Mo.) and treated with a 3-fold serial dilution of the compounds of interest from 10 μM to 0.0005 μM. Each concentration was tested in duplicate at least 3 separate times. The number of viable cells following 48 hours of compound treatment was determined using the CellTiter-Glo® Luminescent Cell Viability Assay according to the manufacturer's recommendations (Promega Corp., Madison, Wis.). Compounds were tested in the presence of 10% HS.

Bcl-xL = Bcl-xL (Homo sapiens, UniProt Q07817); assay: TR-FRET Bcl-xL binding assay (competition with probe F-Bak)
Experimental: For the assay, test compounds were serially diluted in DMSO starting at 50 μM (2× starting concentration; 10% DMSO) and 10 μL transferred into a 384-well plate. 10 μL of a protein/probe/antibody mix was then added to each well at final concentrations listed below:
The samples were then mixed on a shaker for 1 minute and incubated for an additional 2 hours at room temperature. For each assay plate, a probe/antibody and protein/antibody/probe mixture were included as a negative and a positive control, respectively. Fluorescence was measured on the Envision (Perkin Elmer) using a 340/35 nm excitation filter and 520/525 (F-Bak) and 495/510 nm (Tb-labeled anti-his antibody) emission filters. Dissociation constants (Ki) were determined using Wang's equation (Wang, 1995, FEBS Lett. 360:111-114). The TR-FRET assay can be performed in the presence of varying concentrations of human serum (HS) or fetal bovine serum (FBS). Compounds were tested both without HS and in the presence of 1% HS.

[2] = in the presence of 1% human serum (HS), read-out: Bcl-xL Binding Ki (nM, 1% HS)
[3] = without human serum, read-out: Bcl-xL Binding Ki

Sequence of Bcl-xL (Q07817 whole entry): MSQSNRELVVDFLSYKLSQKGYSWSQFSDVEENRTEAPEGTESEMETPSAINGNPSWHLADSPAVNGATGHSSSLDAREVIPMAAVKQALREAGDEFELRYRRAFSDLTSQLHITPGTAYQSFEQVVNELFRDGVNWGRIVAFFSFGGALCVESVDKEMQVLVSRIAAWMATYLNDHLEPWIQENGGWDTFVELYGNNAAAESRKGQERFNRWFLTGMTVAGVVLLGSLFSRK

Row | EC50 [1] [nM] | Ki (Bcl-xL; [2]) [nM] | Ki (Bcl-xL; [3]) [nM] | SMILES
1 | > 10000 | 309 | 21 | Cc1c(-c2ccc(N3CCc4scc(C(=O)Nc5nc6ccccc6s5)c4C3)nc2C(=O)O)cnn1CC12CC3(C)CC(C)(C1)CC(OCCN)(C3)C2 [Compound W3.19, 3-(1-{[3-(2-aminoethoxy)-5,7-dimethyltricyclo[3.3.1.1^3,7]dec-1-yl]methyl}-5-methyl-1H-pyrazol-4-yl)-6-[3-(1,3-benzothiazol-2-ylcarbamoyl)-6,7-dihydrothieno[3,2-c]pyridin-5(4H)-yl]pyridine-2-carboxylic acid]
2 | 10.8 | 0.58 | 0.03 | Cc1c(-c2ccc(-c3ccc4cccc(C(=O)Nc5nc6ccccc6s5)c4c3)nc2C(=O)O)cnn1CC12CC3(C)CC(C)(C1)CC(OCCNCCCO)(C3)C2 [Compound W3.37, 6-[8-(1,3-benzothiazol-2-ylcarbamoyl)naphthalen-2-yl]-3-{1-[(3-{2-[(3-hydroxypropyl)amino]ethoxy}-5,7-dimethyltricyclo[3.3.1.1^3,7]dec-1-yl)methyl]-5-methyl-1H-pyrazol-4-yl}pyridine-2-carboxylic acid]
3 | 14.4 | 0.684 | 0.012 | Cc1c(-c2ccc(N3CCc4cccc(C(=O)Nc5nc6ccccc6s5)c4C3)nc2C(=O)O)cnn1CC12CC3(C)CC(C)(C1)CC(OCCNC1CN(S(C)(=O)=O)C1)(C3)C2 [Compound W3.31, 6-[8-(1,3-benzothiazol-2-ylcarbamoyl)-3,4-dihydroisoquinolin-2(1H)-yl]-3-(1-{[3,5-dimethyl-7-(2-{[1-(methylsulfonyl)azetidin-3-yl]amino}ethoxy)tricyclo[3.3.1.1^3,7]dec-1-yl]methyl}-5-methyl-1H-pyrazol-4-yl)pyridine-2-carboxylic acid]
4 | 0.3 | 0.009 | < 0.001 | CNCCOC12CC3(C)CC(C)(CC(Cn4ncc(-c5ccc(-c6ccc7c(c6)N(C(=O)Nc6nc8ccccc8s6)CCC7)nc5C(=O)O)c4C)(C3)C1)C2 [Compound W3.01, 6-[1-(1,3-benzothiazol-2-ylcarbamoyl)-1,2,3,4-tetrahydroquinolin-7-yl]-3-[1-({3,5-dimethyl-7-[2-(methylamino)ethoxy]tricyclo[3.3.1.1^3,7]dec-1-yl}methyl)-5-methyl-1H-pyrazol-4-yl]pyridine-2-carboxylic acid]
5 | 185 | 0.09 | < 0.01 | CNCCOC12CC3(C)CC(C)(CC(Cn4ncc(-c5ccc(-c6[nH]c7c(C(=O)Nc8nc9ccccc9s8)cccc7c6C)nc5C(=O)O)c4C)(C3)C1)C2 [Compound W3.29, 6-[7-(1,3-benzothiazol-2-ylcarbamoyl)-3-methyl-1H-indol-2-yl]-3-[1-({3,5-dimethyl-7-[2-(methylamino)ethoxy]tricyclo[3.3.1.1^3,7]dec-1-yl}methyl)-5-methyl-1H-pyrazol-4-yl]pyridine-2-carboxylic acid]
6 | 658 | 0.16 | 0.022 | CNCCOC12CC3(C)CC(C)(CC(Cn4ncc(-c5ccc(-c6cnc7[nH]cc(C(=O)Nc8nc9ccccc9s8)c7c6)nc5C(=O)O)c4C)(C3)C1)C2 [Compound W3.35, 6-[3-(1,3-benzothiazol-2-ylcarbamoyl)-1H-pyrrolo[2,3-b]pyridin-5-yl]-3-[1-({3,5-dimethyl-7-[2-(methylamino)ethoxy]tricyclo[3.3.1.1^3,7]dec-1-yl}methyl)-5-methyl-1H-pyrazol-4-yl]pyridine-2-carboxylic acid]
7 | 2290 | 6.8 | 0.013 | Cc1c(-c2ccc(N3CCc4c(C#N)ccc(C(=O)Nc5nc6ccccc6s5)c4C3)nc2C(=O)O)cnn1CC12CC3(C)CC(C)(C1)CC(OCCN)(C3)C2 [Compound W3.13, 3-(1-{[3-(2-aminoethoxy)-5,7-dimethyltricyclo[3.3.1.1^3,7]dec-1-yl]methyl}-5-methyl-1H-pyrazol-4-yl)-6-[8-(1,3-benzothiazol-2-ylcarbamoyl)-5-cyano-3,4-dihydroisoquinolin-2(1H)-yl]pyridine-2-carboxylic acid]
8 | 14 | 0.19 | 0.038 | Cc1c(-c2ccc(N3CCc4cccc(C(=O)Nc5nc6ccccc6s5)c4C3)nc2C(=O)O)cnn1CC12CC3(C)CC(C)(C1)CC(OCCNCCS(N)(=O)=O)(C3)C2 [Compound W3.18, 6-[8-(1,3-benzothiazol-2-ylcarbamoyl)-3,4-dihydroisoquinolin-2(1H)-yl]-3-{1-[(3,5-dimethyl-7-{2-[(2-sulfamoylethyl)amino]ethoxy}tricyclo[3.3.1.1^3,7]dec-1-yl)methyl]-5-methyl-1H-pyrazol-4-yl}pyridine-2-carboxylic acid]
9 | 3.8 | 0.14 | < 0.001 | CNCCOC12CC3(C)CC(C)(CC(Cn4ncc(-c5ccc(N6CCc7c(OC)ccc(C(=O)Nc8nc9ccccc9s8)c7C6)nc5C(=O)O)c4C)(C3)C1)C2 [Compound W3.09, 6-[8-(1,3-benzothiazol-2-ylcarbamoyl)-5-methoxy-3,4-dihydroisoquinolin-2(1H)-yl]-3-[1-({3,5-dimethyl-7-[2-(methylamino)ethoxy]tricyclo[3.3.1.1^3,7]dec-1-yl}methyl)-5-methyl-1H-pyrazol-4-yl]pyridine-2-carboxylic acid]
10 | 2.5 | 0.1 | < 0.001 | COCCNCCOC12CC3(C)CC(C)(CC(Cn4ncc(-c5ccc(-c6ccc7cccc(C(=O)Nc8nc9ccccc9s8)c7c6)nc5C(=O)O)c4C)(C3)C1)C2 [Compound W3.15, 6-[8-(1,3-benzothiazol-2-ylcarbamoyl)naphthalen-2-yl]-3-{1-[(3-{2-[(2-methoxyethyl)amino]ethoxy}-5,7-dimethyltricyclo[3.3.1.1^3,7]dec-1-yl)methyl]-5-methyl-1H-pyrazol-4-yl}pyridine-2-carboxylic acid]
11 | 34.3 | 0.94 | < 0.001 | CNCCOC12CC3(C)CC(C)(CC(Cn4ncc(-c5ccc(-c6ccc7nccc(C(=O)Nc8nc9ccccc9s8)c7c6)nc5C(=O)O)c4C)(C3)C1)C2 [Compound W3.11, 6-[4-(1,3-benzothiazol-2-ylcarbamoyl)quinolin-6-yl]-3-[1-({3,5-dimethyl-7-[2-(methylamino)ethoxy]tricyclo[3.3.1.1^3,7]dec-1-yl}methyl)-5-methyl-1H-pyrazol-4-yl]pyridine-2-carboxylic acid]
12 | 2.6 | 0.051 | 0.0042 | COCCNCCOC12CC3(C)CC(C)(CC(Cn4ncc(-c5ccc(N6CCc7c(OC)ccc(C(=O)Nc8nc9ccccc9s8)c7C6)nc5C(=O)O)c4C)(C3)C1)C2 [Compound W3.12, 6-[8-(1,3-benzothiazol-2-ylcarbamoyl)-5-methoxy-3,4-dihydroisoquinolin-2(1H)-yl]-3-{1-[(3-{2-[(2-methoxyethyl)amino]ethoxy}-5,7-dimethyltricyclo[3.3.1.1^3,7]dec-1-yl)methyl]-5-methyl-1H-pyrazol-4-yl}pyridine-2-carboxylic acid]
13 | 2210 | 8.14 | 0.794 | CNCCOC12CC3(C)CC(C)(CC(Cn4ncc(-c5ccc(N6CCc7c(N)ccc(C(=O)Nc8nc9ccccc9s8)c7C6)nc5C(=O)O)c4C)(C3)C1)C2 [Compound W3.24, 6-[5-amino-8-(1,3-benzothiazol-2-ylcarbamoyl)-3,4-dihydroisoquinolin-2(1H)-yl]-3-[1-({3,5-dimethyl-7-[2-(methylamino)ethoxy]tricyclo[3.3.1.1^3,7]dec-1-yl}methyl)-5-methyl-1H-pyrazol-4-yl]pyridine-2-carboxylic acid]
14 | 0.5 | 0.047 | < 0.001 | CNCCOC12CC3(C)CC(C)(CC(Cn4ncc(-c5ccc(-c6ccc7c(c6)N(C(=O)Nc6nc8ccccc8s6)CCO7)nc5C(=O)O)c4C)(C3)C1)C2 [Compound W3.02]
15 | 1.4 | 0.019 | < 0.001 | CNCCOC12CC3(C)CC(C)(CC(Cn4ncc(-c5ccc(-c6ccc7c(c6)N(C(=O)Nc6nc8ccccc8s6)CCN7C)nc5C(=O)O)c4C)(C3)C1)C2 [Compound W3.03, 6-[4-(1,3-benzothiazol-2-ylcarbamoyl)-1-methyl-1,2,3,4-tetrahydroquinoxalin-6-yl]-3-[1-({3,5-dimethyl-7-[2-(methylamino)ethoxy]tricyclo[3.3.1.1^3,7]dec-1-yl}methyl)-5-methyl-1H-pyrazol-4-yl]pyridine-2-carboxylic acid]
16 | 1.8 | 0.014 | < 0.001 | COCCNCCOC12CC3(C)CC(C)(CC(Cn4ncc(-c5ccc(-c6ccc7c(c6)N(C(=O)Nc6nc8ccccc8s6)CCC7)nc5C(=O)O)c4C)(C3)C1)C2 [Compound W3.14, 6-[1-(1,3-benzothiazol-2-ylcarbamoyl)-1,2,3,4-tetrahydroquinolin-7-yl]-3-{1-[(3-{2-[(2-methoxyethyl)amino]ethoxy}-5,7-dimethyltricyclo[3.3.1.1^3,7]dec-1-yl)methyl]-5-methyl-1H-pyrazol-4-yl}pyridine-2-carboxylic acid]
